# Data from PubChem BioAssay (NCI).
#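 Each compound was tested at five concentrations against cells in 96-well plates for 48 hours. GI50 marks 50% less growth. TGI marks complete inhibition of growth.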
# Experiments:
# Test in all cases: growth of human tumour cells (NCI), 48 h
# HL-60(TB) leukemia = tested on: HL-60(TB) leukemia
# CCRF-CEM leukemia = tested on: CCRF-CEM leukemia
# IGROV1 ovarian = tested on: IGROV1 ovarian
# SR leukemia = tested on: SR leukemia
# SW-620 colon = tested on: SW-620 colon
# K-562 leukemia = tested on: K-562 leukemia
# HCT-15 colon = tested on: HCT-15 colon
# TK-10 renal = tested on: TK-10 renal
Structure (SMILES),TGI (HL-60(TB) leukemia) [µM],TGI (CCRF-CEM leukemia) [µM],TGI (IGROV1 ovarian) [µM],TGI (SR leukemia) [µM],TGI (SW-620 colon) [µM],TGI (K-562 leukemia) [µM],TGI (HCT-15 colon) [µM],TGI (TK-10 renal) [µM],GI50 (HL-60(TB) leukemia) [µM],GI50 (CCRF-CEM leukemia) [nM],GI50 (SR leukemia) [nM],GI50 (SW-620 colon) [µM],GI50 (K-562 leukemia) [µM],GI50 (HCT-15 colon) [µM],GI50 (TK-10 renal) [µM],GI50 (IGROV1 ovarian) [µM]
C[C@]12CC[C@H]3[C@@H](CCC4=C[C@@H](OC5OCC(OC6OC(CO)C(O)C(O)C6O)C(O)C5O)CC[C@@]43C=O)[C@@]1(O)CCC2C1=CC(=O)OC1 (stereo partly specified),0.646,> 100,2.66,0.627,9.23,3.38,1.76,8.19,,,,,,,,
O=C(Nc1ccccc1C(=O)Nc1nccs1)c1ccccc1,> 100,> 100,> 100,> 100,> 100,> 100,> 100,> 100,,,,,,,,
C=Cc1cnc([N+](=O)[O-])n1C,> 100,> 100,,60.5,> 100,,> 100,> 100,,,,,,,,
O=C(c1ccccc1)c1ccccc1C(=O)c1ccccc1,> 100,> 100,,> 100,> 100,> 100,> 100,> 100,53.7,42900,41700,55.8,41,50,32.8,
COc1cc(CNC(=O)CCSc2nc3ccccc3c(=O)n2Cc2cc(OC)c(OC)c(OC)c2)cc(OC)c1OC,> 100,> 100,> 100,> 100,> 100,,> 100,44.4,3.57,4910,3010,4.31,,2.47,11,13.2
Cc1[nH]n(-c2ccccc2)c(=O)c1C(=O)c1ccccc1,> 25,> 25,> 25,> 25,> 25,> 25,> 25,> 25,> 25,> 25000,> 21000,> 25,> 21.3,> 23.9,> 25,> 15.4
C=C(C)[C@@H]1CC[C@]2(C)[C@H](CC=C3[C@@H]4[C@H](C)[C@@H](C)CC[C@]4(CO)CC[C@]32C)[C@@]1(C)CCCN,2.27,5.26,1.67,,2.11,3.63,1.76,9.75,1.03,1310,,1.01,1.22,0.839,2.21,0.885
N#Cc1c(NCc2ccccc2)nc(NCc2ccccc2)c(C#N)c1-c1cccc(O)c1,,> 100,41.1,7.48,68.2,,33.7,17.4,,3380,2090,4.49,,4.33,4.11,19.7
COc1cc(/C=C/c2cc(/C=C/c3ccc(O)c(OC)c3)[nH]c(=O)n2)ccc1O,12.1,6.22,> 100,6.18,16.6,35.8,> 100,36,3.74,2100,1910,3.17,3.66,5.43,6.13,4.41
N#CC1CCc2c(c(-c3cn[nH]c3C(F)(F)F)nc3c(F)cc4[nH]ncc4c23)C1 (stereo unspecified),16.9,> 100,8.79,59.1,38,> 100,> 100,57.9,2.56,4060,2920,3.47,9.53,53.1,6.28,2.46
CC(=O)NS(=O)(=O)c1ccc(-n2nc(-c3ccccc3)cc2C2=CC(=O)C=CC2=O)cc1,> 100,,> 100,,> 100,> 100,> 100,> 100,> 100,,,36.6,57,> 100,75.4,> 100
CC(C)(O)CCC(O)C(C)(O)C1CCC2(O)C3=CC(=O)C4(O)CC(O)C(O)CC4(C)C3CCC12C (stereo unspecified) (tested in a mixture with another compound),> 100,> 100,> 100,> 100,> 100,> 100,> 100,> 100,,,,,,,,
COc1ccc(S(=O)(=O)n2c3ccccc3n3ncc(-c4nnc(C)o4)c23)cc1,0.841,> 100,> 67.1,> 100,> 100,> 100,> 75.8,> 100,0.273,431,770,0.394,0.314,0.424,25.4,0.634
COc1cc(N=Nc2cccc(S(N)(=O)=O)c2)c2ccccc2c1N,23.6,38.6,28.4,35.8,> 95.3,37.7,49.5,30.1,,,,,,,,
C#CCOc1cccc(Nc2ncc3ncn(C4CCN(C(=O)CCl)C4)c3n2)c1 (stereo unspecified),> 62.5,> 62.5,> 62.5,> 62.5,> 62.5,> 62.5,> 62.5,> 62.5,22.7,2460,7720,15.4,17.9,> 62.5,> 62.5,6.79
O[C@H](CN1CC1)[C@@H](O)CN1CC1,> 100,> 100,33.3,> 100,> 100,> 100,88.9,77.6,1.22,604,452,4.61,6.84,10.6,21.3,10.7
O=C(Nc1cccc([N+](=O)[O-])c1)c1cc2ccccc2cc1O,3.03,6.66,> 26.1,8.17,17,11,28.3,9.46,0.59,2380,1460,2.72,0.845,2.75,4.03,1.3

Structure (SMILES),TGI (HL-60(TB) leukemia) [µM],TGI (CCRF-CEM leukemia) [µM],TGI (IGROV1 ovarian) [µM],TGI (SR leukemia) [µM],TGI (SW-620 colon) [µM],TGI (K-562 leukemia) [µM],TGI (HCT-15 colon) [µM],TGI (TK-10 renal) [µM],GI50 (HL-60(TB) leukemia) [µM],GI50 (CCRF-CEM leukemia) [nM],GI50 (SR leukemia) [nM],GI50 (SW-620 colon) [µM],GI50 (K-562 leukemia) [µM],GI50 (HCT-15 colon) [µM],GI50 (TK-10 renal) [µM],GI50 (IGROV1 ovarian) [µM]
N=C1C(c2nc(-c3ccc(Br)cc3)cs2)=C(O)CN1CC1CCCO1 (stereo unspecified),> 100,> 100,,> 100,,> 100,> 100,> 100,> 100,> 100000,> 100000,,> 100,> 100,> 100,
Cc1cc(O)c2c(c1)C(=O)C(c1c(C)cc3c(c1O)C(=O)C1OC1C3=O)=CC2=O (stereo unspecified),0.0151,,23.9,40.1,7.54,,3.05,3.36,,,,,,,,
N#C/C(=C\c1cccnc1)c1nc2ccccc2o1,> 100,,> 100,> 100,> 100,> 100,> 100,> 100,> 100,,> 100000,> 100,> 100,> 100,> 100,> 100
CCC(=O)OC1=CN2C(=NC(c3ccc(N)cc3)=CC2c2cc(OC)c(OC)c(OC)c2)S1 (stereo unspecified),> 100,9.13,6.63,,10.7,> 100,29.6,16.1,3.01,2410,,2.89,3.47,2.47,4,2.31
C=C1C(=O)O[C@H]2[C@H]1CC/C(COC(=O)/C=C/c1c[nH]c3ccccc13)=C\CC[C@@]1(C)O[C@@H]21,0.717,0.854,0.484,,0.446,> 100,0.425,0.709,0.256,73.3,,0.181,0.273,0.181,0.279,0.225
S=C(Nc1ccccc1)N1CCn2c1nsc2=Nc1ccccc1,> 100,> 100,> 100,,> 100,> 100,> 100,95,> 100,31400,,48.4,31.3,78.2,26.6,50.2
CCCNc1cccc(-n2ncc3c(N/N=C/c4ccncc4)ncnc32)c1,,> 25,,> 25,> 25,> 25,> 25,> 25,,> 25000,1180,> 6.13,1.12,1.68,2.37,
CCC1OC(/C(C)=C/C(C)/C=C/C2C(C)C2/C=C/C2OC(CC(=O)O)CC(O)C2O)CC=C1C (stereo unspecified),,> 50,> 50,,> 50,> 50,> 50,> 50,,> 50000,,> 50,> 50,> 50,9.6,> 50
N#Cc1ccc2c(c1)C(=O)c1c-2n(CCCN=[N+]=[N-])c(=O)c2cc([N+](=O)[O-])ccc12,> 50,> 50,> 50,4.82,> 50,,> 50,> 50,> 50,1820,373,3.5,,> 50,> 50,12.4
O=S1(=O)CC(Br)C(Br)C1 (stereo unspecified),8.75,8.95,28.6,21.6,,14.2,7.24,11.9,3.5,1600,3580,,3.79,2.64,3.77,10.6
CS(=O)(=O)Nc1cc(-c2ccc3ncnc(Nc4cccc(Cl)c4F)c3c2)cnc1Cl,40.2,> 100,4.34,,37.7,> 100,14.5,8.73,3.19,2590,,3.31,4.2,2.78,1.77,1.02
COc1cc(CC2CC(c3ccc4c(c3)OCO4)OC2=O)cc(OC)c1OC (stereo unspecified),> 100,> 100,,> 100,> 100,> 100,> 100,> 100,,,,,,,,
CN(C)CCNc1c2c(c(NCCN(C)C)c3c(CO)c[nH]c13)C(=O)c1ccccc1C2=O,> 100,> 32.1,> 40.7,,7.57,> 100,10.6,7.55,29.9,3070,,1.87,3.47,1.96,2.53,2.49
C[C@H]1CCC/C=C/[C@@H]2C[C@H](O)C[C@H]2[C@H](O)[C@@H](SC2OC(CO)C(O)C(O)C2O)CC(=O)O1 (stereo partly specified),> 100,> 100,> 100,,> 100,> 100,> 100,> 100,> 100,61200,,> 100,> 100,> 100,> 100,> 100
C(#Cc1ccccc1C#Cc1ccccn1)c1ccccn1,17.7,38.6,,,56.7,27.1,25,22.3,3.92,13800,,21.2,7.02,11.2,6.54,
CN1N=Nc2c(C(F)(F)F)nn(-c3ccccc3)c2N(C)C1=O,> 52.7,,> 100,> 100,> 100,> 100,> 100,> 100,> 32,,> 100000,> 100,> 56.4,> 100,> 100,> 100
CC1(C)N=C(N)N=C(N)N1c1ccc(OCCCCNC(=O)c2ccc(S(=O)(=O)F)cc2)c(Cl)c1,> 100,> 100,> 100,> 100,> 100,> 100,> 100,,1.84,5650,4950,3.51,0.562,23.3,,4.78
